# Measured values published in US10683293B2, “Optionally fused heterocyclyl-substituted derivatives of pyrimidine useful for the treatment of inflammatory, metabolic, oncologic and autoimmune diseases” (NUEVOLUTION A/S, priority 2014, dated 2020).
# Target: T1, human RORγt (Ligand Binding Domain) (Homo sapiens, UniProt P51449)
# T1 construct: purchased Crelux (Planegg, Germany) batch no PC5032-1
# T1 sequence (P51449 269-508 limits assumed): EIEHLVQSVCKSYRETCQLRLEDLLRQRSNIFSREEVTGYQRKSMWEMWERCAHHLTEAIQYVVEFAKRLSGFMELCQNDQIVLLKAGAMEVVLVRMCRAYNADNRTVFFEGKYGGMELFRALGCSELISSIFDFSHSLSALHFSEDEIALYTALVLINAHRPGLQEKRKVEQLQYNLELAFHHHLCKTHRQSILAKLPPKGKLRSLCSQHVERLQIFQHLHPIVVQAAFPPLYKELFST
# Assay: Fluorescence Polarization (FP) Assay
# Details: 100 nM human RORγt LBD, 25 nM TAMRA probe, values are activity range bounds
# Description: The activity of the compounds was evaluated using a Fluorescence Polarization (FP) Assay and, RORγ Reporter assay (also referred to as Gal4 assay). The FP assay is an in vitro assay monitoring binding within the ligand binding pocket. The RORγ and the Th17 assays (another suitable assay) are both cell-based assays monitoring functional activity of the compound assayed.
# Fluorescence Polarization (FP) Assay
# The total volume was 25 μl, in a black Perkin Elmer OptiPlate. As negative control, 1 μl DMSO was used. […] The probe is a fluorescently labeled (TAMRA) RORγt ligand identified by Nuevolution with a total molecular weight of 910 g/mole as shown in Graph A in FIG. 1.
row,SMILES,IC50 [nM]
1,"NC(=O)Cc1ccc(CNc2ncnc(N(Cc3cccc(-c4cccnc4)c3)C3CC3)c2F)cc1 [Example A130, 2-[4-[[[6-[cyclopropyl-[[3-(3-pyridyl)phenyl]methyl]amino]-5-fluoro-pyrimidin-4-yl]amino]methyl]phenyl]acetamide]",< 500
2,"CN(Cc1ccc(-n2cccn2)cc1)c1ncnc(NCC2(CCO)CCOCC2)c1F [Example A132, 2-[4-[[[5-fluoro-6-[methyl-[(4-pyrazol-1-ylphenyl)methyl]amino]pyrimidin-4-yl]amino]methyl]tetrahydropyran-4-yl]ethanol]",< 10000
3,"CN(Cc1ccc(-n2cccn2)cc1)c1ncnc(NCC2(CS(C)(=O)=O)CCOCC2)c1F [Example A133, 5-fluoro-N6-methyl-N4-[[4-(methylsulfonylmethyl)tetrahydro-pyran-4-yl]methyl]-N6-[(4-pyrazol-1-ylphenyl)methyl]pyrimidine-4,6-diamine]",< 2000
4,"COCCNS(=O)(=O)c1ccc(CNc2ncnc(N(C)Cc3ccc(-n4cccn4)cc3)c2F)cc1 [Example A136, 4-[[[5-fluoro-6-[methyl-[(4-pyrazol-1-ylphenyl)methyl]amino]pyrimidin-4-yl]amino]methyl]-N-(2-methoxyethyl)benzenesulfonamide]",< 2000
5,"CN(Cc1ccc(-n2cccn2)cc1)c1ncnc(NCc2ccc(S(=O)(=O)O)cc2)c1F [Example A137, 4-[[[5-fluoro-6-[methyl-[(4-pyrazol-1-ylphenyl)methyl]amino]pyrimidin-4-yl]amino]methyl]benzenesulfonic acid]",< 500
6,"COc1ccc(CN(C)c2ncnc(NCc3ccc(CC(N)=O)cc3)c2F)c(OC)c1 [Example A139, 2-[4-[[[6-[(2,4-dimethoxyphenyl)methyl-methyl-amino]-5-fluoro-pyrimidin-4-yl]amino]methyl]phenyl]acetamide]",< 2000
7,"CN(Cc1cccc(-n2cccn2)c1)c1ncnc(NCC2(O)CCS(=O)(=O)CC2)c1F [Example A140, 4-[[[5-fluoro-6-[methyl-[(3-pyrazol-1-ylphenyl)methyl]amino]pyrimidin-4-yl]amino]methyl]-1,1-dioxo-thian-4-ol]",< 10000
8,"CN(Cc1cccc(-n2cccn2)c1)c1ncnc(NCC2CCOCC2)c1F [Example A141, 5-fluoro-N6-methyl-N6-[(3-pyrazol-1-ylphenyl)methyl]-N4-(tetrahydropyran-4-ylmethyl)pyrimidine-4,6-diamine]",< 2000
9,"CN(Cc1cccc(-n2cccn2)c1)c1ncnc(NCc2ccc(CS(C)(=O)=O)cc2)c1F [Example A144, 5-fluoro-N6-methyl-N4-[[4-(methylsulfonylmethyl)phenyl]methyl]-N6-[(3-pyrazol-1-ylphenyl)methyl]pyrimidine-4,6-diamine]",< 10000
10,"O=C(O)CNC(=O)CC1(CNc2ncnc(N(Cc3ccc(C(F)(F)F)cc3)C3CC3)c2F)CCOCC1 [Example A154, 2-[[2-[4-[[[6-[cyclopropyl-[[4-(trifluoromethyl)phenyl]methyl]amino]-5-fluoro-pyrimidin-4-yl]amino]methyl]tetrahydropyran-4-yl]acetyl]amino]acetic acid]",< 2000
11,"COc1cc(CN(c2ncnc(NCc3ccc(CC(N)=O)cc3)c2F)C2CC2)ccc1Cl [Example A156, 2-[4-[[[6-[(4-chloro-3-methoxy-phenyl)methyl-cyclopropyl-amino]-5-fluoro-pyrimidin-4-yl]amino]methyl]phenyl]acetamide]",< 500
12,"CS(=O)(=O)N1CCC(CNc2ncnc(N(Cc3ccc(C(F)(F)F)cc3)C3CC3)c2F)C1 (centres unmarked) [Example A158, N4-cyclopropyl-5-fluoro-N6-[(1-methylsulfonylpyrrolidin-3-yl)methyl]-N4-[[4-(trifluoromethyl)phenyl]methyl] pyrimidine-4,6-diamine]",< 500
13,"CS(=O)(=O)N1CC(CNc2ncnc(N(Cc3ccc(C(F)(F)F)cc3)C3CC3)c2F)C1 [Example A160, N4-cyclopropyl-5-fluoro-N6-[(1-methylsulfonylazetidin-3-yl)methyl]-N4-[[4-(trifluoromethyl)phenyl]methyl] pyrimidine-4,6-diamine]",< 500
14,"N#Cc1cccc(CN(c2ncnc(NCc3ccc(CC(N)=O)cc3)c2F)C2CC2)c1 [Example A163, 2-[4-[[[6-[(3-cyanophenyl)methyl-cyclopropyl-amino]-5-fluoro-pyrimidin-4-yl]amino]methyl]phenyl]acetamide]",< 500
15,"CS(=O)(=O)N1CC(CNc2ncnc(N(Cc3ccc(C(F)(F)F)cn3)C3CC3)c2F)C1 [Example A173, N4-cyclopropyl-5-fluoro-N6-[(1-methylsulfonylazetidin-3-yl)methyl]-N4-[[5-(trifluoromethyl)-2-pyridyl]methyl]pyrimidine-4,6-diamine]",< 10000

# Continued, values first:
row,IC50 [nM],SMILES
1,< 500,"CC(c1cccc2ccccc12)N(C)c1ncnc(NCc2ccc(CC(N)=O)cc2)c1F (centres unmarked) [Example A131, 2-[4-[[[5-fluoro-6-[methyl-[1-(1-naphthyl)ethyl]amino]pyrimidin-4-yl]amino]methyl]phenyl]acetamide]"
2,< 2000,"CN(Cc1ccc(-n2cccn2)cc1)c1ncnc(NCc2ccc(-c3nnn[nH]3)cc2)c1F [Example A134, 5-fluoro-N6-methyl-N6-[(4-pyrazol-1-ylphenyl)methyl]-N4-[[4-(1H-tetrazol-5-yl)phenyl]methyl]pyrimidine-4,6-diamine]"
3,< 10000,"CN(Cc1ccc(-n2cccn2)cc1)c1ncnc(NCc2ccc(S(N)(=O)=O)cc2)c1F [Example A135, 4-[[[5-fluoro-6-[methyl-[(4-pyrazol-1-ylphenyl)methyl]amino]pyrimidin-4-yl]amino]methyl]benzenesulfonamide]"
4,< 10000,"CN1CCC(NC(=O)CC2(CNc3ncnc(N(Cc4ccc(C(F)(F)F)cc4)C4CC4)c3F)CCOCC2)C1 (centres unmarked) [Example A152, 2-[4-[[[6-[cyclopropyl-[[4-(trifluoromethyl)phenyl]methyl]amino]-5-fluoro-pyrimidin-4-yl]amino]methyl]tetrahydropyran-4-yl]-N-(1-methylpyrrolidin-3-yl)acetamide]"
5,< 10000,"CN(C)CCCNC(=O)CC1(CNc2ncnc(N(Cc3ccc(C(F)(F)F)cc3)C3CC3)c2F)CCOCC1 [Example A153, 2-[4-[[[6-[cyclopropyl-[[4-(trifluoromethyl)phenyl]methyl]amino]-5-fluoro-pyrimidin-4-yl]amino]methyl]tetrahydropyran-4-yl]-N-[3-(dimethylamino)propyl]acetamide]"
6,< 1000,"O=C(O)CCNC(=O)CC1(CNc2ncnc(N(Cc3ccc(C(F)(F)F)cc3)C3CC3)c2F)CCOCC1 [Example A155, 3-[[2-[4-[[[6-[cyclopropyl-[[4-(trifluoromethyl)phenyl]methyl]amino]-5-fluoro-pyrimidin-4-yl]amino]methyl]tetrahydropyran-4-yl]acetyl]amino]propanoic acid]"
7,< 500,"Cc1ccc(CNc2ncnc(N(Cc3ccc(C(F)(F)F)cc3)C3CC3)c2F)nn1 [Example A157, N4-cyclopropyl-5-fluoro-N6-[(6-methylpyridazin-3-yl)methyl]-N4-[[4-(trifluoromethyl)phenyl]methyl] pyrimidine-4,6-diamine]"
8,< 500,"Cc1cnc(CNc2ncnc(N(Cc3ccc(C(F)(F)F)cc3)C3CC3)c2F)cn1 [Example A159, N4-cyclopropyl-5-fluoro-N6-[(5-methylpyrazin-2-yl)methyl]-N4-[[4-(trifluoromethyl)phenyl]methyl] pyrimidine-4,6-diamine]"
9,< 500,"NC(=O)Cc1ccc(CNc2ncnc(N(Cc3cccc(-n4cncn4)c3)C3CC3)c2F)cc1 [Example A161, 2-[4-[[[6-[cyclopropyl-[[3-(1,2,4-triazol-1-yl)phenyl]methyl]amino]-5-fluoro-pyrimidin-4-yl]amino]methyl]phenyl]acetamide]"
10,< 500,"NC(=O)Cc1ccc(CNc2ncnc(N(Cc3ccc4c(c3)OCC(=O)N4)C3CC3)c2F)cc1 [Example A162, 2-[4-[[[6-[cyclopropyl-[(3-oxo-4H-1,4-benzoxazin-7-yl)methyl]amino]-5-fluoro-pyrimidin-4-yl]amino]methyl]phenyl]acetamide]"
11,< 10000,"CS(=O)(=O)N1CCC(CNc2ncnc(N(Cc3ccc(C(F)(F)F)cn3)C3CC3)c2F)C1 (centres unmarked) [Example A166, N6-cyclopropyl-5-fluoro-N4-[(1-methylsulfonylpyrrolidin-3-yl)methyl]-N6-[[5-(trifluoromethyl)-2-pyridyl]methyl]pyrimidine-4,6-diamine]"
12,< 2000,"NC(=O)Cc1ccc(CNc2ncnc(N(Cc3ccc(C(F)(F)F)cc3)C3CC3)c2F)nc1 [Example A177, 2-[6-[[[6-[cyclopropyl-[[4-(trifluoromethyl)phenyl]methyl]amino]-5-fluoro-pyrimidin-4-yl]amino]methyl]-3-pyridyl]acetamide]"
13,< 10000,"Cc1cc(CN(c2ncnc(NCC3CCN(S(C)(=O)=O)CC3)c2F)C2CCCCC2)n(C)n1 [Example A180, N6-cyclohexyl-N6-[(2,5-dimethylpyrazol-3-yl)methyl]-5-fluoro-N4-[(1-methylsulfonyl-4-piperidyl)methyl]pyrimidine-4,6-diamine]"
14,< 10000,"O=C(O)C[C@H](Nc1ncnc(N(Cc2ccc(C(F)(F)F)cc2)C2CC2)c1F)c1ccccc1 [Example A182, (3S)-3-[[6-[cyclopropyl-[[4-(trifluoromethyl)phenyl]methyl]amino]-5-fluoro-pyrimidin-4-yl]amino]-3-phenyl-propanoic acid]"
